Source: US20240217946A1, “ANTIDEPRESSANT AND ANXIOLYTIC SUBSTITUTED CINNAMAMIDE COMPOUND” (TASLY PHARMACEUTICAL GROUP CO., LTD., priority 2021, published 2024)

What was measured:
[1] = system: DA reuptake in rat brain synaptosomes; assay: 3H-DA reuptake by rat brain synaptosomes; type: biochemical; conditions: 3H-DA 10 nM, rat brain synaptosomes; read-out: DA inhibition rate % IC50
Excerpt: At present, it is believed that absolute or relative deficiencies of the central monoamine neurotransmitters 5-hydroxytryptamine (5-HT), norepinephrine (NA) and dopamine (DA) are closely related to depression and anxiety. This experiment was designed to evaluate, by the method of in vitro monoamine reuptake, the inhibitory effect of two samples of tested compound I-5 and compound M2 on reuptake of 5-HT, NA and DA in rat brain synaptosomes. The preparation of in vitro SD rat brain synaptosomes and isotopic tracer method were employed to investigate IC50 of inhibition of monoamine reuptake of DA, 5-HT and NA in two tested samples, in order to explore the possible mechanism of antidepressant and anxiolytic effects of compound I-5 and compound M2.
Synaptosomes were separated using methods in literature to prepare brain synaptosomes. SD rats were rapidly decapitated with a small animal decapitator. After decapitation, brains were taken out quickly and precooled in an ice-water mixture, and the pia mater and vascular tissue were removed. Brain tissue was taken out. 10 times volume (ml/g) of 10 mM Tris HCl buffer (containing 0.32 M sucrose, pH 7.4) was added, an ultrasonic cell pulverizer was used for homogenization (maintaining at a low temperature), and the brain tissue was homogenized and centrifuged for 10 min (4° C., 1,000 g). After balanced centrifugation (1500 g, 10 min) at 4° C., precipitate was discarded, then supernatant was taken, and centrifugation (20000 g) was performed again for 30 min. The supernatant was discarded and the precipitate, i.e. crude extract of synaptic corpuscles, was retained. […] The precipitate was suspended in a small amount of Kreb's buffer (NaCl 118 mM, KCl 4.7 mM, CaCl2) 2.5 mM, MgSO4 1.2 mM, KH2PO4 1.2 mM, NaHCO325 mM and Glucose 11.1 mM, pH 7.2-7.4), BCA method was used for protein quantification, and the operation steps were as described in the description. […]
The percentage inhibition of isotope ligand binding by each compound was calculated according to the following equation: […]

SD rats = assay: Vogel drinking conflict experiment in rats, single administration; type: in vivo; conditions: for Number of times of drinking water: 10 mg/kg i.g., 30 min after single dose, punishment stage 3 min, n = 8; for anxiolytic activity in drinking conflict experiment vs solvent control group: single intragastric administration of 20 mg/kg
Description: 75 male SD rats, with the body weight of 180-220 g, were fed adaptively for 1 week, water deprived for 24 h for training period test. The animals screened to be qualified were randomly divided into 7 groups (a solvent control group, estazolam group, compound M2 group, compound II-3 group, compound II-4 group, compound II-5 group and compound II-10 group) according to their body weight, with 8 rats in each group. […] results of 3.1: the positive drug estazolam was administered intragastrically at 1.24 mg/kg; and the solvent control group was gavaged with an equal volume of solvent. The grouped animals were continued to be water deprived for 24 h and were given a single dose, and tested in a punishment experiment 30 min after the single dose.
The experiment was carried out in two stages. The first stage is a training stage, in which 24 h after water deprivation, animals were placed in an operation box separately, and were allowed to fully explore until they found the bottle mouth and started to lick water (with an intensity of electric shock being 0 mA), a counter automatically recorded the number of licks within 3 min, and the animals that licked water less than 300 times were eliminated.
Observation index: the number of water licks of rats in the punishment stage.
Data was expressed as mean±standard (mean±SD) difference, and statistics of data differences were made by one-way analysis of variance (ANOVA) or nonparametric test, and differences between groups were determined by P<0.05.

CC(C)CNC(=O)/C=C/c1cc2c(c(C(F)(F)F)c1)OCO2 [Compound I-5]
IC50 [1]: 26 ± 1.33 nM
Number of times of drinking water (SD rats): 478.02 ± 106.32
anxiolytic activity in drinking conflict experiment vs solvent control group (SD rats): significant anxiolytic activity

NC(=O)/C=C/c1cc2c(c(C(F)(F)F)c1)OCO2 [Compound M2]
IC50 [1]: 37.3 ± 1.97 nM
Number of times of drinking water (SD rats): 527.26 ± 143.66
anxiolytic activity in drinking conflict experiment vs solvent control group (SD rats): significant anxiolytic activity
